These results are taken from paper PMC10872723 (Journal of medicinal chemistry, 2023).

The structures appear in SMILES notation. Where two headings read alike, the source gives them in different places.

One data set deals with VCB E3 ligase complex (Homo sapiens, UniProt P40337). In words: Isothermal titration calorimetry. It counts as binding. (ITC needs no label: the signal is the heat of the interaction.)
The subject of data set [1] is WDR5-11–VCB ternary complex. Put plainly: ITC binding cooperativity, VCB into WDR5-11 binary complex. The arrangement: species or system human. The conditions noted are these: VCB binding to the WDR5-11 binary complex vs VCB into 11.
For data set [2], the target named is T1, WDR5 (Homo sapiens, UniProt P61964). In words: Western blotting of WDR5 degradation in PDAC cell lines. The class given is cell-based. The conditions noted are these: 18 h; for WDR5 degradation (WB): MIA PaCa-2, BxPC-3, HPAF-II, Panc10.05 and PANC-1 cells, indicated concentrations.
In a further data set the test system is MIA PaCa-2 cells. In words: TMT MS-based global proteomic study in MIA PaCa-2 cells. It counts as cell-based, human. The conditions noted are these: 1.5 μM, 2 h, 4040 quantified proteins, cutoff P value less than 0.01, Log2 fold change greater than 0.5.
Data set [3] deals with PDAC cell lines including MIA PaCa-2, BxPC-3, HPAF-II, Panc10.05, and PANC-1. In words: Antiproliferative activity in PDAC cell lines. It counts as cell-based, human.
A short description of another data set: Mouse PK study. The conditions noted are these: 75 mg/kg.
In data set [4] the target is T1, WDR5. The conditions noted are these: MIA PaCa-2 cells.
Data set [5] concerns the target T1, WDR5. Put plainly: Western blotting of WDR5 protein levels in MV4. The conditions noted are these: MV4;11 cells. For orientation: Immunoblotting shows a protein as a band on a membrane.
The target in a further data set is IKZF1 (Homo sapiens, UniProt Q13422). In words: Western blotting of IKZF1 protein levels in MV4. The conditions noted are these: MV4;11 cells.
Chain of IKZF1 (Q13422 whole entry): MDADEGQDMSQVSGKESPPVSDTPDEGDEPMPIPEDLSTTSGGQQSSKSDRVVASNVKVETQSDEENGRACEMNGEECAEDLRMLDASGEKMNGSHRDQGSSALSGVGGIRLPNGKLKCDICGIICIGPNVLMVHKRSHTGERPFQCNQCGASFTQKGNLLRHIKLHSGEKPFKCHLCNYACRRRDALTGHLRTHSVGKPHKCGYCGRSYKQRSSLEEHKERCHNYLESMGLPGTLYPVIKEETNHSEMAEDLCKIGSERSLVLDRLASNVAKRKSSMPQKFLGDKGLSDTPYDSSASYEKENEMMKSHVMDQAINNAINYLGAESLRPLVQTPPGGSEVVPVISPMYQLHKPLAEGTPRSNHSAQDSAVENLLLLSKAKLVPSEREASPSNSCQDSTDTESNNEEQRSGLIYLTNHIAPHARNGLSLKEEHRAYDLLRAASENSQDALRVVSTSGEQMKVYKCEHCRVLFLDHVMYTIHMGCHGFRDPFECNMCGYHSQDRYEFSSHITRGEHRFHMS
For a further data set, the target named is LIMD1 (Homo sapiens, UniProt Q9UGP4). Put plainly: Western blotting of LIMD1 protein levels in MV4. The conditions noted are these: MV4;11 cells, 0.1 and 0.5 μM, 18 h (Figure 5A).
Chain of LIMD1 (Q9UGP4 whole entry): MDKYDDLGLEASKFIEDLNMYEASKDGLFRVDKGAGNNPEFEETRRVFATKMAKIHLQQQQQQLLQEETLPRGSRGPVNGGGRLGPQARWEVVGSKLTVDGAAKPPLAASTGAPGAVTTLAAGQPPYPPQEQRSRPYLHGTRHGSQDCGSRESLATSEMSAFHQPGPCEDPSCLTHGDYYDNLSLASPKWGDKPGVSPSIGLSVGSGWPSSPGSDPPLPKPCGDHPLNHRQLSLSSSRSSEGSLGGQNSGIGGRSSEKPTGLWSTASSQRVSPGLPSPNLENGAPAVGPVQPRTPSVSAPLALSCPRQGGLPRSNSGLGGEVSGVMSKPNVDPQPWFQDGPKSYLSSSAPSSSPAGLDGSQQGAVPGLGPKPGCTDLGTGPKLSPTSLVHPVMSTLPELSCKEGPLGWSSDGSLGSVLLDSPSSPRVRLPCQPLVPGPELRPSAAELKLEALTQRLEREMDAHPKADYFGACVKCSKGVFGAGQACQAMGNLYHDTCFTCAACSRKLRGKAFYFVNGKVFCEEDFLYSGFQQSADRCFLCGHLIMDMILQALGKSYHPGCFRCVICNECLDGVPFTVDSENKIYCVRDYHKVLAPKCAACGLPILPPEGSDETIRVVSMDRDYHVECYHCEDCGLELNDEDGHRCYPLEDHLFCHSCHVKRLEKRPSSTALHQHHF
For data set [6], the target named is T1, WDR5. In words: Isothermal titration calorimetry. The class given is binding.
Data set [7] deals with PDAC cell lines including MIA PaCa-2, BxPC-3, HPAF-II, Panc10.05, and PANC-1. The conditions noted are these: previously reported; cited from earlier work.
Where [8] appears, read: 0.1 and 0.5 μM, 18 h (Figure 5A).
Where [9] appears, read: indicated concentrations, 18 h (Figure 5C).
[10] abbreviates: indicated concentrations, 18 h (Figure 5B).

Chain of VCB E3 ligase complex (Q15369 whole entry): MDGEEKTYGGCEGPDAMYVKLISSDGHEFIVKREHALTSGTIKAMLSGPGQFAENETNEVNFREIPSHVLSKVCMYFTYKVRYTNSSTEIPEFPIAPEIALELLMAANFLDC
Chain of VCB E3 ligase complex (Q15370 1-104, further chain): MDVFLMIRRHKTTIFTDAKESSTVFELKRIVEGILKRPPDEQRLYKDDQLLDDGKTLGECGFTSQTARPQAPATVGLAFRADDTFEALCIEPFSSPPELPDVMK
Chain of VCB E3 ligase complex (P40337 54-213): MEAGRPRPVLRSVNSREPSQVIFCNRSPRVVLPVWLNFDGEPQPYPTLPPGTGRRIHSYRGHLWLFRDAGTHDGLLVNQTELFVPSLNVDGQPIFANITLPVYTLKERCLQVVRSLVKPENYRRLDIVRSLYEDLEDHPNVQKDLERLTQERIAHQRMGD

At VCB E3 ligase complex, `Cc1ncsc1-c1ccc(CNC(=O)[C@@H]2C[C@@H](O)CN2C(=O)[C@@H](NC(=O)CNC(=O)c2ccc(F)c(-c3ccc(N4C[C@@H](C)N(C)[C@@H](C)C4)c(NC(=O)c4c[nH]c(=O)cc4C(F)(F)F)c3)c2)C(C)(C)C)cc1` [Compound 11, N-(2′-Fluoro-5′-((2-(((S)-1-((2S,4R)-4-hydroxy-2-((4-(4-methylthiazol-5-yl)benzyl)carbamoyl)pyrrolidin-1-yl)-3,3-dimethyl-1-oxobutan-2-yl)amino)-2-oxoethyl)carbamoyl)-4-((3S,5R)-3,4,5-trimethylpiperazin-1-yl)-[1,1′-biphenyl]-3-yl)-6-oxo-4-(trifluoromethyl)-1,6-dihydropyridine-3-carboxamide] gave a Kd of 534 ± 48 nM. For the same compound, in data set [1], the “Binding cooperativity α = KD (binary)/KD (ternary)” value was 2.30. In addition, the “WDR5 degradation (WB)” value at WDR5 [2] is on record as “induced WDR5 degradation in a concentration-dependent manner”. For the same compound, the “Hook effect in WDR5 degradation” value on WDR5 [2] (PDAC cells, concentrations up to 50 μM) is “no “hook effect” observed”. Further, the Proteome-wide degradation selectivity result in the data set with MIA PaCa-2 cells was “WDR5 is the only protein whose abundance was significantly decreased”. The compound also came in with a GI50 in data set [3] (Homo sapiens, 144 h) of 4000 to 32000 nM. Besides, in the data set “Mouse PK study” (male, Swiss albino, mouse, plasma, ip), the Tmax was found to be 30 min. For the same compound, in the data set “Mouse PK study” (mice, single IP injection), the “Clinical signs during the PK study” value is “no clinical signs were observed”, the “Plasma concentration maintained for the initial 4 h” value is on record as “around 1 μM” and the “Plasma concentration maintained over 12 h” value is “above 100 nM”. Besides, at WDR5 [4] (0.1 μM), the “Time at which maximal WDR5 degradation achieved” value is reported as 24 h and the “Time at which significant WDR5 reduction observed” value is listed as 2 h. The “WDR5 protein levels (WB verification for proteomics)” value at WDR5 [4] (1.5 μM, 2 h (Figure S5)) was “significantly reduced WDR5 protein levels”. On WDR5 [4] (0.1 and 0.5 μM, 18 h (Figure 3)), the “WDR5 protein levels (WB)” value is “effectively decreased the WDR5 protein levels”.
As for `CN1CCN(c2ccc(-c3cccc(CN4CCN(CCNC(=O)CCCCCCCNC(=O)COc5cccc6c5C(=O)N(C5CCC(=O)NC5=O)C6=O)CC4)c3)cc2NC(=O)c2c[nH]c(=O)cc2C(F)(F)F)CC1` (stereo not shown) [Compound 21, N-(3′-((4-(2-(8-(2-((2-(2,6-Dioxopiperidin-3-yl)-1,3-dioxoisoindolin-4-yl)oxy)acetamido)octanamido)ethyl)piperazin-1-yl)methyl)4-(4-methylpiperazin-1-yl)-[1,1′-biphenyl]-3-yl)-6-oxo-4-(trifluoromethyl)-1,6-dihydropyridine-3-carboxamide], at WDR5 [5] (setting [8]), the “Effectiveness in downregulating WDR5 protein levels relative to other degraders” value is “slightly more effective than MS40 and 23”; the “WDR5 protein levels (WB)” value is “effectively downregulated WRD5 protein levels”. Besides, at WDR5 [4] (setting [9]), the “WDR5 protein levels (WB)” value is “effectively reduced the cellular WDR5 protein levels”. The “IKZF1 protein levels (WB)” value on IKZF1 (setting [8]) is “completely ineffective in degrading neo-substrate IKZF1”. For the same compound, the “LIMD1 protein levels (WB)” value on LIMD1 is “completely ineffective in degrading neo-substrate IKZF1, and protein LIMD1”.
Turning to `CN1CCN(c2ccc(-c3cccc(CN4CCN(CCNC(=O)CCCCCCCNC(=O)COc5cccc6c5C(=O)N(C5CCC(=O)N(C)C5=O)C6=O)CC4)c3)cc2NC(=O)c2c[nH]c(=O)cc2C(F)(F)F)CC1` (stereo not shown) [Compound 22, N-(3′-((4-(2-(8-(2-((2-(1-Methyl-2,6-dioxopiperidin-3-yl)-1,3-dioxoisoindolin-4-yl)oxy)acetamido)octanamido)ethyl)piperazin-1-yl)methyl)-4-(4-methylpiperazin-1-yl)-[1,1′-biphenyl]-3-yl)-6-oxo-4-(trifluoromethyl)-1,6-dihydropyridine-3-carboxamide], the “WDR5 protein levels (WB)” value at WDR5 [5] (setting [8]) is “did not have an effect on the protein levels of WDR5, IKZF1, and LIMD1”. Besides, the “IKZF1 protein levels (WB)” value on IKZF1 (setting [8]) is “did not have an effect on the protein levels of WDR5, IKZF1, and LIMD1”. Besides, the “LIMD1 protein levels (WB)” value on LIMD1 was “did not have an effect on the protein levels of WDR5, IKZF1, and LIMD1”.
For `CN1CCN(c2ccc(-c3cccc(CN4CCN(CCNC(=O)CCCCNC(=O)COc5cccc6c5C(=O)N(C5CCC(=O)NC5=O)C6=O)CC4)c3)cc2NC(=O)c2c[nH]c(=O)cc2C(F)(F)F)CC1` (stereo not shown) [Compound 23, N-(3′-((4-(2-(5-(2-((2-(2,6-Dioxopiperidin-3-yl)-1,3-dioxoisoindolin-4-yl)oxy)acetamido)pentanamido)ethyl)piperazin-1-yl)methyl)-4-(4-methylpiperazin-1-yl)-[1,1′-biphenyl]-3-yl)-6-oxo-4-(trifluoromethyl)-1,6-dihydropyridine-3-carboxamide], at WDR5 [5] (setting [8]), the “WDR5 protein levels (WB)” value was “to a less extent effectively downregulated WRD5 protein levels”. On IKZF1 (setting [8]), the “IKZF1 protein levels (WB)” value was “completely ineffective in degrading neo-substrate IKZF1”. For the same compound, at LIMD1, the “LIMD1 protein levels (WB)” value is “completely ineffective in degrading neo-substrate IKZF1, and protein LIMD1”.
With `CN1CCN(c2ccc(-c3cccc(CN4CCN(CCNC(=O)CCCCNC(=O)COc5cccc6c5C(=O)N(C5CCC(=O)N(C)C5=O)C6=O)CC4)c3)cc2NC(=O)c2c[nH]c(=O)cc2C(F)(F)F)CC1` (stereo not shown) [Compound 24, N-(3′-((4-(2-(5-(2-((2-(1-Methyl-2,6-dioxopiperidin-3-yl)-1,3-dioxoisoindolin-4-yl)oxy)acetamido)pentanamido)ethyl)piperazin-1-yl)methyl)-4-(4-methylpiperazin-1-yl)-[1,1′-biphenyl]-3-yl)-6-oxo-4-(trifluoromethyl)-1,6-dihydropyridine-3-carboxamide], at WDR5 [5] (setting [8]), the “WDR5 protein levels (WB)” value was “did not have an effect on the protein levels of WDR5, IKZF1, and LIMD1”. Also, the “IKZF1 protein levels (WB)” value on IKZF1 (setting [8]) was “did not have an effect on the protein levels of WDR5, IKZF1, and LIMD1”. In addition, at LIMD1, the “LIMD1 protein levels (WB)” value was “did not have an effect on the protein levels of WDR5, IKZF1, and LIMD1”.
`C[C@@H]1CN(c2ccc(-c3cc(C(=O)NCCCCCCCNC(=O)COc4cccc5c4C(=O)N(C4CCC(=O)NC4=O)C5=O)ccc3F)cc2NC(=O)c2c[nH]c(=O)cc2C(F)(F)F)C[C@H](C)N1C` (stereo partly drawn) [Compound 25, N-(5′-((7-(2-((2-(2,6-Dioxopiperidin-3-yl)-1,3-dioxoisoindolin-4-yl)oxy)acetamido)heptyl)carbamoyl)-2′-fluoro-4-((3S,5R)-3,4,5-trimethylpiperazin-1-yl)-[1,1′-biphenyl]-3-yl)-6-oxo-4-(trifluoromethyl)-1,6-dihydropyridine-3-carboxamide]: on WDR5 [4] (setting [9]), the “WDR5 protein levels (WB)” value was “effectively reduced the cellular WDR5 protein levels”. Also, the “IKZF1 protein levels (WB)” value on IKZF1 (setting [10]) was “had no effect on IKZF1 protein levels”.
Take `C[C@@H]1CN(c2ccc(-c3cc(C(=O)NCCCCCCCNC(=O)COc4cccc5c4C(=O)N(C4CCC(=O)N(C)C4=O)C5=O)ccc3F)cc2NC(=O)c2c[nH]c(=O)cc2C(F)(F)F)C[C@H](C)N1C` (stereo partly drawn) [Compound 26, N-(2′-Fluoro-5′-((7-(2-((2-(1-methyl-2,6-dioxopiperidin-3-yl)-1,3-dioxoisoindolin-4-yl)oxy)acetamido)heptyl)carbamoyl)-4-((3S,5R)-3,4,5-trimethylpiperazin-1-yl)-[1,1′-biphenyl]-3-yl)-6-oxo-4-(trifluoromethyl)-1,6-dihydropyridine-3-carboxamide]: the “WDR5 protein levels (WB)” value on WDR5 [5] (indicated concentrations, 18 h (Figures 5B and S1)) was “did not affect the protein levels of WDR5 and IKZF1”. For the same compound, the “IKZF1 protein levels (WB)” value at IKZF1 (setting [10]) was “did not affect the protein levels of WDR5 and IKZF1”.
As for `Cc1ncsc1-c1ccc(CNC(=O)[C@H]2C[C@H](O)CN2C(=O)[C@@H](NC(=O)CNC(=O)c2ccc(F)c(-c3ccc(N4C[C@@H](C)N(C)[C@@H](C)C4)c(NC(=O)c4c[nH]c(=O)cc4C(F)(F)F)c3)c2)C(C)(C)C)cc1` [Compound 27, N-(2′-Fluoro-5′-((2-(((S)-1-((2R,4S)-4-hydroxy-2-((4-(4-methylthiazol-5-yl)benzyl)carbamoyl)pyrrolidin-1-yl)-3,3-dimethyl-1-oxobutan-2-yl)amino)-2-oxoethyl)carbamoyl)-4-((3S,5R)-3,4,5-trimethylpiperazin-1-yl)-[1,1′-biphenyl]-3-yl)-6-oxo-4-(trifluoromethyl)-1,6-dihydropyridine-3-carboxamide], at VCB E3 ligase complex (mean ± SD, three independent experiments), the “KD to VCB (ITC)” value was “did not display any noticeable binding to VCB”. At WDR5 [6], this compound came in with a Kd of 106 ± 43 nM. Also, on WDR5 [2], the “WDR5 degradation (WB)” value is given as “unable to degrade WDR5 in all tested pancreatic cancer cells”. Besides, the Antiproliferative activity entry in data set [3] (PDAC cells, 6 day treatment) is recorded as “lack of antiproliferative activity”.
With `CN1CCN(c2ccc(-c3cccc(CN4CCOCC4)c3)cc2NC(=O)c2c[nH]c(=O)cc2C(F)(F)F)CC1` [OICR-9429], the Antiproliferative activity entry in data set [7] is “lack of antiproliferative activity”.

As usually defined, the Kd is the equilibrium constant for the complex coming apart. A word on the GI50: it is the concentration that inhibits growth by half. Broadly, the Tmax is the time from dosing to the highest level.
